Test results from patent US10857128B2, “Methods and compositions for treating inflammatory diseases” (Helmholtz Zentrum München Deutsches Forschungszentrum für …, priority 2017, dated 2020).

Experiments:
human LPS treated DCs = assay: Cytokine secretion of human DCs (multiplex assay); type: cell-based; settings: for IFN-g / IL-5 / IL-10 / IL-12: 200 μl supernatant or amino acid 10 μM, 14 h
Description: Peripheral blood mononuclear cells (PBMC) were isolated from heparinized whole blood by density gradient centrifugation (2000 rpm, 22° C., 20 min) (Biocoll, Biochrom AG, Berlin, Germany). […] Purity and viability of DCs was assessed by flow cytometry (FIG. 9A-C).
[…] For probiotic supernatants, blank CDM1 was used as medium control. […] IL-5, IFN-gamma, IL-12, and IL-10, were quantified by a multiplex assay (Milliplex Human Cytokine Immunoassay, Millipore GMbH Schalbach, Germany) as described by the manufacturer.

[1] = tested on: allergic airway inflammation; assay: Ovalbumin-induced allergic airway inflammation (AAI) in mice with oral D-tryptophan; type: in vivo, Balb/c mice
Description: Isolation of intestinal lamina propria cells. Total colons were excised from mice, removed from mesenteries, opened longitudinally and cut into 2 cm long pieces that were incubated for 30 min in 30 mM EDTA in PBS on ice and then shaken vigorously with PBS to remove epithelial cells. After further cutting into small pieces with sharp scissors these were digested at 37° C. in RMPI supplemented with 1 mg/mL collagenase D (Roche Diagnostics, Mannheim, Germany) and 10 mg/ml DNAse I (Sigma-Aldrich, St. Louis, USA). Cells were separated by a 40/80% (w/v) Percoll (GE Healthcare, Chalfont St. Giles, UK) density centrifugation step and washed prior to staining for flow cytometry analysis.
Costimulatory molecules on human DCs. The following primary monoclonal antibodies were used: CD83 fluorescein isothiocyanate (FITC); CD1a phycoerythrin (PE); CD86-FITC; CD80-PE; CD14 allophycocyanine (APC); CD40-APC; CD3-peridinin chlorophyll protein (PerCP); HLA-DR-PerCP; mouse immunoglobulins G1 (IgG1) mouse immunoglobulins G1 (IgG1) κ were used as isotype controls using the corresponding fluorochromes (all purchased from BD Biosciences, Heidelberg, Germany). To account for donor dependent variability of DC surface markers, all data were normalized to the expression induced by LPS which was set to 100% after subtraction of background values (FACS Canto, FACS DIVA software, Version 5.0.3, BD Biosciences, Heidelberg, Germany). Murine DC subsets and CD4^+ T cells. Single cell suspensions of splenocytes were obtained by filtering spleens through a 70 μm strainer. Samples were stained with CD3-PB (1:200, Biolegend, San Diego, USA), CD4-APC-H7 (BD, 1:400), CD11c-APC-Cy7 (1:100), Mhc-II-Percp-Cy5 (1:100), CD11b-FITC (1:100), CD80-AF647, CD40-APC (1:100). For intracellular cytokines, total spleen cells were stimulated with anti-CD3 (4 μg/mL, BD Bioscience, Heidelberg, Germany) and anti-CD28 (30 ng/mL, BD Bioscience, Heidelberg, Germany) for 16 h. 1×10^6 of total lung cells were stimulated for 16 h with MACSiBead particles coated with anti-CD3 and anti-CD28 using the T cell activation/expansion kit (Miltenyi Biotec, Bergisch Gladbach, Germany) in TexMACS medium (Miltenyi Biotec) according to the manufactures recommendations. Prior to staining, cells were treated with monensin (0.7 μL/mL, BD Golgi Stop, BD Bioscience, Heidelberg, Germany) for 6 h at 37° C. and intracellularly stained for II-4-PE (1:100, eBioscience, Vienna, Austria according to the manufacturer's protocols. Intracellular staining for Foxp3 was performed by using the Foxp3/Transcription Factor Staining buffer set (eBiosciences, Vienna, Austria) according to the manufacturer's recommendations.
Assessment of cytokines by cytometric bead array. Levels of II4, II5 and II13 were analysed in BALF and cell culture supernatants using an enhanced cytometric bead array (eCBA, Fex Set Kits, BD Biosciences, Franklin Lakes, N.J., USA) according to the manufacturer's guidelines.
Murine regulatory T cells. Cells were preincubated with Fc-Block (BD Bioscience, Heidelberg, Germany) for 5 min and stained for 20 min with the following antibodies: FITC-conjugated anti-CD3, Alexa-Fluor700-conjugated anti-CD4 and APC-eFluor780-conjugated CD45.2. For intracellular staining, cells were fixed and permeabilized with a commercially available fixation/permeabilization buffer (eBioscience, Vienna, Austria). LIVE/DEAD fixable Aqua dead stain kit (Invitrogen, Carlsbad, USA) was used prior to fixation. Intracellular staining was performed with PerCP-Cy5.5-conjugated anti-Foxp3 and Helios. Gates were set on live CD45^+CD3^+CD4^+ T cells. All antibodies were from eBioscience (Vienna, Austria). Cells were analyzed with a flow cytometer (Fortessa and LSRII, BD Bioscience, Heidelberg, Germany) and analyzed with Flowjo software (Flowjo LLC, Ashland, USA).
Induction of allergic airway inflammation. […]

[2] = AAI mice, 50 mM in drinking water

Q: `N[C@H](Cc1c[nH]c2ccccc12)C(=O)O` [D-tryptophan] was tested. Which “IL-10 in DC cultures” value (human LPS treated DCs; highly enriched DCs) did it give?
A: strongly induced

Q: And the “LPS-induced IFN-g, IL-12 and IL-5 in DC cultures” value (human LPS treated DCs; highly enriched DCs)?
A: lowered

Q: And the “Ratio IL-5/IFN-g” value (human LPS treated DCs; with LPS 0.1 μg/ml)?
A: 0.018

Q: And the “Ratio IL-10/IL-12” value (human LPS treated DCs; with LPS 0.1 μg/ml)?
A: 0.232

Q: What about the IFN-g (human LPS treated DCs; with LPS 0.1 μg/ml) of the same molecule?
A: 1129.50 pg/mL

Q: And the IL-5 (human LPS treated DCs; with LPS 0.1 μg/ml)?
A: 20.60 pg/mL

Q: What about the IL-10 (human LPS treated DCs; with LPS 0.1 μg/ml) of the same molecule?
A: 202.50 pg/mL

Q: What about the IL-12 (human LPS treated DCs; with LPS 0.1 μg/ml) of the same molecule?
A: 871.90 pg/mL

Q: And the “Ratio IL-5/IFN-g” value (human LPS treated DCs; without LPS)?
A: 0.470

Q: And the “Ratio IL-10/IL-12” value (human LPS treated DCs; without LPS)?
A: 0.690

Q: And the IFN-g (human LPS treated DCs; without LPS)?
A: 21.90 pg/mL

Q: What about the IL-5 (human LPS treated DCs; without LPS) of the same molecule?
A: 10.30 pg/mL

Q: And the IL-10 (human LPS treated DCs; without LPS)?
A: 56.90 pg/mL

Q: What about the IL-12 (human LPS treated DCs; without LPS) of the same molecule?
A: 82.50 pg/mL

Q: What about the “Helios+ Treg (lung)” value [1, 2] of the same molecule?
A: significantly increased

Q: What about the “II-4 producing T cells (lung)” value [1, 2] of the same molecule?
A: reduced

Q: What about the “Ifn-g-producing Th1 cells (lung)” value [1, 2] of the same molecule?
A: not

Q: What about the “airway hyperreactivity to methacholine” value [1, 2] of the same molecule?
A: improved

Q: What about the “eosinophils in BALF” value [1, 2] of the same molecule?
A: reduction

Q: And the “total Foxp3+ cells (lung)” value [1, 2]?
A: remained unchanged

Q: What about the “total BALF cells” value ([1]; AAI mice, 50 mM in drinking water from 3 days before sensitization) of the same molecule?
A: lowered

Q: And the “II-4 levels in BALF” value ([1]; AAI mice, 50 mM in drinking water, (trend))?
A: reduced

Q: And the “frequency of Foxp3+ T cells in the colon” value ([1]; supplemented AAI mice compared to non-supplemented AAI mice)?
A: locally increased
